Key:
[1] = target: T1, Furin (108-574-Tev-Flag-His) enzyme (Homo sapiens, UniProt P09958); assay: Furin enzyme assay; assay type: biochemical; conditions: for IC50: read-out: furin enzyme pIC50 (converted)
T1 construct: Furin (108-574-Tev-Flag-His) enzyme was expressed and purified from CHO cells; TEV cleavage site (C); FLAG (C); His (C); made in house; host or cells: CHO cells
Method in brief: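 Compounds ran as 11-point threefold dilutions (0.00017–10 μM final) against 40 pM furin, purified from CHO cells, for 2 h at room temperature. Buffer: 100 mM HEPES pH7.5 with 1 mM CaCl2 and 0.005% Triton X-100. Envision readout. Four-parameter curve gives pXC50.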

[2] = target: T2, furin (endogenous protease) in U20S cells (Homo sapiens, UniProt P09958); assay: Furin cell-based assay (image-based, Golgi-targeted GFP with BMP10 furin/PCSK cleavage site); conditions: 24-hour incubation, read-out: furin golgi cell pXC50 (converted);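 note: Read-out is mean GFP fluorescence of Golgi puncta per cell by high-content imaging, retained when furin inhibited, over an eleven-point 0.00017–10 µM series, four-parameter fit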
T2 construct: the endogenous protease cleaves GFP; endogenous in cells; host or cells: U2OS cells transduced with a BacMam reporter
T2 sequence (P09958 108-794): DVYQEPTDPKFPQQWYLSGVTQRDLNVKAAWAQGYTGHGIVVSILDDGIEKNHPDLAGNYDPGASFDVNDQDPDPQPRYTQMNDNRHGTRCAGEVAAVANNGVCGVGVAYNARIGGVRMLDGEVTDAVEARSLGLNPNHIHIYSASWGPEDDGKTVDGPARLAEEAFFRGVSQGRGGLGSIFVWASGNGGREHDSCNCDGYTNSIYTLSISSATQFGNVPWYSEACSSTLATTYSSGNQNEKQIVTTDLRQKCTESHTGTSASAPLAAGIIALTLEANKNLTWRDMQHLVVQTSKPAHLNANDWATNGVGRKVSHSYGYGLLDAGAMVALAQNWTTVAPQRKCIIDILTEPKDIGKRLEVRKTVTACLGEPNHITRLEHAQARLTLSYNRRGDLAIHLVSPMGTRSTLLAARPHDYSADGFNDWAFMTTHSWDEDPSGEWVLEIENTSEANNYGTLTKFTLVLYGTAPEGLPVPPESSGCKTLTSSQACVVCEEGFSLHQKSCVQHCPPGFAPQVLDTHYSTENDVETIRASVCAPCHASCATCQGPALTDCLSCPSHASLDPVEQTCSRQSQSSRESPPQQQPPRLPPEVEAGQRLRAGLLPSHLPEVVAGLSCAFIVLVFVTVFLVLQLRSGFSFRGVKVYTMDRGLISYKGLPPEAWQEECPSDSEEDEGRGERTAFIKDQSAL

T1 sequence (P09958 108-574): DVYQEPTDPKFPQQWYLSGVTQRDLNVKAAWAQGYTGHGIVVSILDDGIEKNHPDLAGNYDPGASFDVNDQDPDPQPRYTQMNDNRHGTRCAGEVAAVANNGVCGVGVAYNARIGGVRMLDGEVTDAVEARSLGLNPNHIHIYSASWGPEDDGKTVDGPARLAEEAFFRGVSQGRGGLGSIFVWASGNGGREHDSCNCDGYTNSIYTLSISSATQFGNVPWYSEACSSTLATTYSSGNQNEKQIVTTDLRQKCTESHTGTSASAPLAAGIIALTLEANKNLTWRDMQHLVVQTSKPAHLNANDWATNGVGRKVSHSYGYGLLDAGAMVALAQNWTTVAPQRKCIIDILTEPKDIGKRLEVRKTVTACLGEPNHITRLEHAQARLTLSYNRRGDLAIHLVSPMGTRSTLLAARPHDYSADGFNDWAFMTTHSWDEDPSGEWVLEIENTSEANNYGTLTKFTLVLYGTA

furin enzyme pIC50 [1] | EC50 [2] [nM] | IC50 [1] [nM] | Compound
10.7 | 10 | – | CCN1CCN(c2ncc(Oc3cc(CN4CCC(CC(=O)O)CC4)cc(-c4cc(Cl)cc(Cl)c4)n3)cn2)CC1 [Example 234, 2-(1-((2-(3,5-Dichlorophenyl)-6-((2-(4-ethylpiperazin-1-yl)pyrimidin-5-yl)oxy)pyridin-4-yl)methyl)piperidin-4-yl)acetic acid]
9.2 | 15.8 | – | CC(C)N1CCN(c2ncc(Oc3cc(CN4CCC(CC(=O)O)CC4)cc(-c4cc(Cl)cc(Cl)c4)n3)cn2)CC1 [Example 235, 2-(1-((2-(3,5-Dichlorophenyl)-6-((2-(4-isopropylpiperazin-1-yl)pyrimidin-5-yl)oxy)pyridin-4-yl)methyl)piperidin-4-yl)acetic acid]
8.5 | 39.8 | – | O=C(O)CC1CCN(Cc2cc(Oc3cnc(N4CCN(CCF)CC4)nc3)nc(-c3cc(Cl)cc(Cl)c3)c2)CC1 [Example 236, 2-(1-((2-(3,5-Dichlorophenyl)-6-((2-(4-(2-fluoroethyl)piperazin-1-yl)pyrimidin-5-yl)oxy)pyridin-4-yl)methyl)piperidin-4-yl)acetic acid]
8.7 | 3.16 | – | CC(O)CCN1CCN(c2ncc(Oc3cc(CN4CCC(CC(=O)O)CC4)cc(-c4cc(Cl)cc(Cl)c4)n3)cn2)CC1 (stereo not shown) [Example 237, 2-(1-((2-(3,5-Dichlorophenyl)-6-((2-(4-(3-hydroxybutyl)piperazin-1-yl)pyrimidin-5-yl)oxy)pyridin-4-yl)methyl)piperidin-4-yl)acetic acid]
9.8 | 10 | – | CC(CCO)N1CCN(c2ncc(Oc3cc(CN4CCC(CC(=O)O)CC4)cc(-c4cc(Cl)cc(Cl)c4)n3)cn2)CC1 (stereo not shown) [Example 238, 2-(1-((2-(3,5-Dichlorophenyl)-6-((2-(4-(4-hydroxybutan-2-yl)piperazin-1-yl)pyrimidin-5-yl)oxy)pyridin-4-yl)methyl)piperidin-4-yl)acetic acid]
8 | 25.1 | – | CNCCC(C)N1CCN(c2ncc(Oc3cc(CN4CCC(CC(=O)O)CC4)cc(-c4cc(Cl)cc(Cl)c4)n3)cn2)CC1 (stereo not shown) [Example 239, 2-(1-((2-(3,5-Dichlorophenyl)-6-((2-(4-(4-(methylamino)butan-2-yl)piperazin-1-yl)pyrimidin-5-yl)oxy)pyridin-4-yl)methyl)piperidin-4-yl)acetic acid]
8.4 | 6.31 | – | CC(CCN(C)C)N1CCN(c2ncc(Oc3cc(CN4CCC(CC(=O)O)CC4)cc(-c4cc(Cl)cc(Cl)c4)n3)cn2)CC1 (stereo not shown) [Example 240, 2-(1-((2-(3,5-Dichlorophenyl)-6-((2-(4-(4-(dimethylamino)butan-2-yl)piperazin-1-yl)pyrimidin-5-yl)oxy)pyridin-4-yl)methyl)piperidin-4-yl)acetic acid]
8.6 | 63.1 | – | CNC(=O)OCCN1CCN(c2ncc(Oc3cc(CN4CCC(CC(=O)O)CC4)cc(-c4cc(Cl)cc(Cl)c4)n3)cn2)CC1 [Example 241, 2-(1-((2-(3,5-Dichlorophenyl)-6-((2-(4-(2-((methylcarbamoyl)oxy)ethyl)piperazin-1-yl)pyrimidin-5-yl)oxy)pyridin-4-yl)methyl)piperidin-4-yl)acetic acid]
8.7 | 25.1 | – | CS(=O)(=O)CCCN1CCN(c2ccc(Oc3cc(CN4CCC(CC(=O)O)CC4)cc(-c4cc(Cl)cc(Cl)c4)n3)cn2)CC1 [Example 243, 2-(1-((2-(3,5-dichlorophenyl)-6-((6-(4-(3-(methylsulfonyl)propyl)piperazin-1-yl)pyridin-3-yl)oxy)pyridin-4-yl)methyl)piperidin-4-yl)acetic acid]
8.3 | 20 | – | COCCN1CCN(c2ccc(Oc3cc(CN4CCC(CC(=O)O)CC4)cc(-c4cc(Cl)cc(Cl)c4)n3)cn2)CC1 [Example 244, 2-(1-((2-(3,5-dichlorophenyl)-6-((6-(4-(2-methoxyethyl)piperazin-1-yl)pyridin-3-yl)oxy)pyridin-4-yl)methyl)piperidin-4-yl)acetic acid]
10 | 3.98 | – | COCCN1CCN(c2ncc(Oc3cc(CN4CCC(CNC(C)=O)CC4)cc(-c4cc(Cl)cc(Cl)c4)n3)cn2)CC1 [Example 245, N-((1-((2-(3,5-dichlorophenyl)-6-((2-(4-(2-methoxyethyl)piperazin-1-yl)pyrimidin-5-yl)oxy)pyridin-4-yl)methyl)piperidin-4-yl)methyl)acetamide]
8.9 | 15.8 | – | NS(=O)(=O)CCCN1CCN(c2ncc(Oc3cc(CN4CCC(CC(=O)O)CC4)cc(-c4cc(Cl)cc(Cl)c4)n3)cn2)CC1 [Example 246, 2-(1-((2-(3,5-dichlorophenyl)-6-((2-(4-(3-sulfamoylpropyl)piperazin-1-yl)pyrimidin-5-yl)oxy)pyridin-4-yl)methyl)piperidin-4-yl)acetic acid]
8.5 | 31.6 | – | COCCN1CCN(c2ncc(Oc3cc(CN4CCC(CC(=O)O)CC4)cc(-c4cc(Cl)cc(Cl)c4)n3)cn2)CC1 [Example 247, 2-(1-((2-(3,5-dichlorophenyl)-6-((2-(4-(2-methoxyethyl)piperazin-1-yl)pyrimidin-5-yl)oxy)pyridin-4-yl)methyl)piperidin-4-yl)acetic acid]
– | 25.1 | 0.0316 | CNC(=O)OCC1CCN(Cc2cc(Oc3cnc(N4CCN(CCC(=O)O)CC4)nc3)nc(-c3cc(Cl)cc(Cl)c3)c2)CC1 [Example 248, 3-(4-(5-((6-(3,5-dichlorophenyl)-4-((4-(((methylcarbamoyl)oxy)methyl)piperidin-1-yl)methyl)pyridin-2-yl)oxy)pyrimidin-2-yl)piperazin-1-yl)propanoic acid]
9.1 | 12.6 | – | CC(=O)NCC1CCN(Cc2cc(Oc3ccc(N4CCN(CCCC(=O)O)CC4)nc3)nc(-c3cc(Cl)cc(Cl)c3)c2)CC1 [Example 249, 4-(4-(5-((4-((4-(acetamidomethyl)piperidin-1-yl)methyl)-6-(3,5-dichlorophenyl)pyridin-2-yl)oxy)pyridin-2-yl)piperazin-1-yl)butanoic acid]
– | 5.01 | < 0.158 | CC(=O)NCC1CCN(Cc2cc(Oc3ccc(N4CCN(CCCS(C)(=O)=O)CC4)nc3)nc(-c3cc(Cl)cc(Cl)c3)c2)CC1 [Example 251, N-((1-((2-(3,5-dichlorophenyl)-6-((6-(4-(3-(methylsulfonyl)propyl)piperazin-1-yl)pyridin-3-yl)oxy)pyridin-4-yl)methyl)piperidin-4-yl)methyl)acetamide]
8.5 | 31.6 | – | NS(=O)(=O)CCCN1CCN(c2ccc(Oc3cc(CN4CCC(CC(=O)O)CC4)cc(-c4cc(Cl)cc(Cl)c4)n3)cn2)CC1 [Example 252, 2-(1-((2-(3,5-dichlorophenyl)-6-((6-(4-(3-sulfamoylpropyl)piperazin-1-yl)pyridin-3-yl)oxy)pyridin-4-yl)methyl)piperidin-4-yl)acetic acid]
9.7 | 2.51 | – | CC(=O)NCC1CCN(Cc2cc(Oc3cnc(N4CCN(CCCS(N)(=O)=O)CC4)nc3)nc(-c3cc(Cl)cc(Cl)c3)c2)CC1 [Example 253, N-((1-((2-(3,5-dichlorophenyl)-6-((2-(4-(3-sulfamoylpropyl)piperazin-1-yl)pyrimidin-5-yl)oxy)pyridin-4-yl)methyl)piperidin-4-yl)methyl)acetamide]
8.7 | 3.16 | – | CNC(=O)NCC1CCN(Cc2cc(Oc3ccc(N4CCN(CCOC)CC4)nc3)nc(-c3cc(Cl)cc(Cl)c3)c2)CC1 [Example 254, 1-((1-((2-(3,5-dichlorophenyl)-6-((6-(4-(2-methoxyethyl)piperazin-1-yl)pyridin-3-yl)oxy)pyridin-4-yl)methyl)piperidin-4-yl)methyl)-3-methylurea]
9.5 | 6.31 | – | CNC(=O)NCC1CCN(Cc2cc(Oc3ccc(N4CCN(CCCS(C)(=O)=O)CC4)nc3)nc(-c3cc(Cl)cc(Cl)c3)c2)CC1 [Example 255, 1-((1-((2-(3,5-dichlorophenyl)-6-((6-(4-(3-(methylsulfonyl)propyl)piperazin-1-yl)pyridin-3-yl)oxy)pyridin-4-yl)methyl)piperidin-4-yl)methyl)-3-methylurea]
9.5 | 15.8 | – | CNC(=O)NCC1CCN(Cc2cc(Oc3cnc(N4CCN(CCC(=O)O)CC4)nc3)nc(-c3cc(Cl)cc(Cl)c3)c2)CC1 [Example 256, 3-(4-(5-((6-(3,5-dichlorophenyl)-4-((4-((3-methylureido)methyl)piperidin-1-yl)methyl)pyridin-2-yl)oxy)pyrimidin-2-yl)piperazin-1-yl)propanoic acid]
10.1 | 5.01 | – | CNC(=O)NCC1CCN(Cc2cc(Oc3cnc(N4CCN(CCCS(C)(=O)=O)CC4)nc3)nc(-c3cc(Cl)cc(Cl)c3)c2)CC1 [Example 257, 1-((1-((2-(3,5-dichlorophenyl)-6-((2-(4-(3-(methylsulfonyl)propyl)piper-1-yl)pyrimidin-5-yl)oxy)pyridin-4-yl)methyl)piperidin-4-yl)methyl)-3-methylurea]

Compound | furin enzyme pIC50 [1] | EC50 [2] [nM] | IC50 [1] [nM]
COCCN1CCN(c2ccc(Oc3cc(CN4CCC(CNC(C)=O)CC4)cc(-c4cc(Cl)cc(Cl)c4)n3)cn2)CC1 [Example 250, N-((1-((2-(3,5-dichlorophenyl)-6-((6-(4-(2-methoxyethyl)piperazin-1-yl)pyridin-3-yl)oxy)pyridin-4-yl)methyl)piperidin-4-yl)methyl)acetamide] | 8.9 | < 0.794 | –

Reference: patent publication US11773078B2, “Furin inhibitors” (Glaxosmithkline Intellectual Property Development Limited, priority 2018, dated 2023)
